Test results published in patent US9650395B2, “Antibacterial compounds and methods for use” (PTC Therapeutics, Inc., priority 2011, dated 2017).
Converted amounts (≈) assume the structure as drawn.

Columns and labels:
[1] = tested on: super sensitive Gram-negative Escherichia coli (E. coli) BAS849; assay: Antibacterial activity, microbroth dilution MIC, E. coli BAS849; format: cell-based; details: Escherichia coli; E. coli BAS849, microbroth dilution; read-out: MIC, BAS849
[2] = tested on: control Gram-negative E. coli 25922 strain; assay: Antibacterial activity, microbroth dilution MIC, E. coli 25922; format: cell-based, Escherichia coli; details: Escherichia coli; E. coli 25922, microbroth dilution; read-out: MIC, 25922
[3] = tested on: Gram-positive Staphylococcus aureus (S. aureus) 29213; assay: Antibacterial activity, microbroth dilution MIC, S. aureus 29213; format: cell-based; details: Staphylococcus aureus; S. aureus 29213, microbroth dilution; read-out: MIC, 29213
[4] = tested on: quinolone resistant E. coli LZ3111; assay: Antibacterial activity, MIC, quinolone resistant E. coli LZ3111; format: cell-based, Escherichia coli; details: Escherichia coli, read-out: MIC, LZ3111
Description: (§1) The antibacterial activity from a microbroth dilution method may be presented as the minimum inhibitory concentration (MIC in […]). The MIC value is the lowest concentration of a drug which prevents macroscopically visible bacterial growth under test conditions.
Mutations in these regions are known to confer a high level resistance to the quinolone class of antibiotics.

[5] = tested on: E. coli ELZ4000 (MDR clinical isolate); assay: Antibacterial activity, MIC, MDR E. coli ELZ4000; format: cell-based, Escherichia coli; details: Escherichia coli; E. coli ELZ4000, MDR clinical isolate; read-out: MIC ELZ4000
[6] = tested on: E. coli ELZ4251 (MDR clinical isolate); assay: Antibacterial activity, MIC, MDR E. coli ELZ4251; format: cell-based, Escherichia coli; details: Escherichia coli, E. coli ELZ4251, MDR clinical isolate; read-out: MIC ELZ4251
[7] = tested on: Pseudomonas aeruginosa (P. aeruginosa) 27853; assay: Antibacterial activity, MIC, P. aeruginosa 27853; format: cell-based; details: Pseudomonas aeruginosa, P. aeruginosa 27853; read-out: MIC 27853
Description: as §1
Antibacterial activity of test compounds against the Gram-negative bacterium Pseudomonas aeruginosa (P. aeruginosa) 27853 is shown in Table 5.

[8] = tested on: Haemophilus influenzae (H. influenzae) 49247; assay: Antibacterial activity, MIC, H. influenzae 49247; format: cell-based; details: Haemophilus influenzae; H. influenzae 49247; read-out: MIC 49247
Description: as §1
Antibacterial activity of test compounds against the Gram-negative bacteria Haemophilus influenzae (H. influenzae) 49247, Moraxella catarrhalis (M. catarrhalis) 25238 and Neisseria meningitidis (N. meningitidis) 13090 is shown in Table 6.

[9] = tested on: Moraxella catarrhalis (M. catarrhalis) 25238; assay: Antibacterial activity, MIC, M. catarrhalis 25238; format: cell-based; details: Moraxella catarrhalis, M. catarrhalis 25238; read-out: MIC 25238
[10] = tested on: Neisseria meningitidis (N. meningitidis) 13090; assay: Antibacterial activity, MIC, N. meningitidis 13090; format: cell-based; details: Neisseria meningitidis; N. meningitidis 13090; read-out: MIC 13090

Structure (SMILES)	MIC [1] [µg/mL]	MIC [2] [µg/mL]	MIC [3] [µg/mL]	MIC [4] [µg/mL]	MIC [5] [µg/mL]	MIC [6] [µg/mL]	MIC [7] [µg/mL]	MIC [8] [µg/mL]	MIC [9] [µg/mL]	MIC [10] [µg/mL]
CCc1cc(C(=O)O)c(=O)[nH]c1-c1ccc(N2CCC2)cc1 [Cpd 111, 6-[4-(azetidin-1-yl)phenyl]-5-ethyl-2-oxo-1,2-dihydropyridine-3-carboxylic acid]	< 1	1 to 3.5 (≈ 3.35 to 11.7 µM)	12.5 to 150 (≈ 41.9 to 503 µM)	12.5 to 150 (≈ 41.9 to 503 µM)	12.5 to 150 (≈ 41.9 to 503 µM)	12.5 to 150 (≈ 41.9 to 503 µM)	12.5 to 150 (≈ 41.9 to 503 µM)	< 1	< 1	< 1
CCc1cc(C(=O)O)c(=O)[nH]c1-c1ccc(N2CC(O)C2)cc1 [Cpd 121, 5-ethyl-6-[4-(3-hydroxyazetidin-1-yl)phenyl]-2-oxo-1,2-dihydropyridine-3-carboxylic acid]	< 1	3.5 to 12.5 (≈ 11.1 to 39.8 µM)	12.5 to 150 (≈ 39.8 to 477 µM)	12.5 to 150 (≈ 39.8 to 477 µM)	12.5 to 150 (≈ 39.8 to 477 µM)	12.5 to 150 (≈ 39.8 to 477 µM)		< 1	< 1	< 1
CCc1cc(C(=O)O)c(=O)[nH]c1-c1ccc(N2CC[C@H](N)C2)cc1.Cl [Cpd 132, 6-{4-[(3S)-3-aminopyrrolidin-1-yl]phenyl}-5-ethyl-2-oxo-1,2-dihydropyridine-3-carboxylic acid hydrochloride]	< 1	1 to 3.5	3.5 to 12.5	12.5 to 150	12.5 to 150	12.5 to 150		< 1	< 1	< 1
CCc1cc(C(=O)O)c(=O)[nH]c1-c1ccc(N2C[C@@H](N)[C@H](OC)C2)cc1.Cl [Cpd 134, 6-{4-[(3R,4R)-3-amino-4-methoxypyrrolidin-1-yl]phenyl}-5-ethyl-2-oxo-1,2-dihydropyridine-3-carboxylic acid hydrochloride]	< 1	3.5 to 12.5	12.5 to 150	12.5 to 150	12.5 to 150	12.5 to 150		< 1	3.5 to 12.5	< 1
CCc1cc(C(=O)O)c(=O)[nH]c1-c1ccc(N2CCC[C@H]2COC)cc1 [Cpd 146, 5-ethyl-6-{4-[(2S)-2-(methoxymethyl)pyrrolidin-1-yl]phenyl}-2-oxo-1,2-dihydropyridine-3-carboxylic acid]	< 1	12.5 to 150 (≈ 35.1 to 421 µM)	12.5 to 150 (≈ 35.1 to 421 µM)					1 to 3.5 (≈ 2.81 to 9.82 µM)	< 1	< 1
CCc1cc(C(=O)O)c(=O)[nH]c1-c1ccc(N2[C@H](COC)CC[C@H]2COC)cc1 [Cpd 148, 6-{4-[(2S,5S)-2,5-bis(methoxymethyl)pyrrolidin-1-yl]phenyl}-5-ethyl-2-oxo-1,2-dihydropyridine-3-carboxylic acid]	3.5 to 12.5 (≈ 8.74 to 31.2 µM)	12.5 to 150 (≈ 31.2 to 375 µM)	12.5 to 150 (≈ 31.2 to 375 µM)					12.5 to 150 (≈ 31.2 to 375 µM)	12.5 to 150 (≈ 31.2 to 375 µM)	3.5 to 12.5 (≈ 8.74 to 31.2 µM)
CCc1cc(C(=O)O)c(=O)[nH]c1-c1ccc(N2CCCC2c2nccs2)cc1 (stereo not shown) [Cpd 156, 5-ethyl-2-oxo-6-{4-[2-(1,3-thiazol-2-yl)pyrrolidin-1-yl]phenyl}-1,2-dihydropyridine-3-carboxylic acid]	< 1	12.5 to 150 (≈ 31.6 to 379 µM)	12.5 to 150 (≈ 31.6 to 379 µM)					< 1	< 1	< 1
CCc1c(-c2ccc(N(C)C)cc2)[nH]c(=O)c(C(=O)O)c1OC [Cpd 298, 6-[4-(dimethylamino)phenyl]-5-ethyl-4-methoxy-2-oxo-1,2-dihydropyridine-3-carboxylic acid]	3.5 to 12.5 (≈ 11.1 to 39.5 µM)	12.5 to 150 (≈ 39.5 to 474 µM)	12.5 to 150 (≈ 39.5 to 474 µM)					3.5 to 12.5 (≈ 11.1 to 39.5 µM)	12.5 to 150 (≈ 39.5 to 474 µM)	3.5 to 12.5 (≈ 11.1 to 39.5 µM)
C=CCN(CC=C)c1ccc(-c2[nH]c(=O)c(C(=O)O)c(O)c2CC)cc1 [Cpd 300, 6-{4-[di(prop-2-en-1-yl)amino]phenyl}-5-ethyl-4-hydroxy-2-oxo-1,2-dihydropyridine-3-carboxylic acid]	1 to 3.5 (≈ 2.82 to 9.88 µM)	12.5 to 150 (≈ 35.3 to 423 µM)	1 to 3.5 (≈ 2.82 to 9.88 µM)	12.5 to 150 (≈ 35.3 to 423 µM)	12.5 to 150 (≈ 35.3 to 423 µM)	12.5 to 150 (≈ 35.3 to 423 µM)		12.5 to 150 (≈ 35.3 to 423 µM)	< 1	< 1
CCc1c(-c2ccc(N(C)C)s2)[nH]c(=O)c(C(=O)O)c1O [Cpd 306, 6-[5-(dimethylamino)thiophen-2-yl]-5-ethyl-4-hydroxy-2-oxo-1,2-dihydropyridine-3-carboxylic acid]	< 1	3.5 to 12.5 (≈ 11.4 to 40.5 µM)	3.5 to 12.5 (≈ 11.4 to 40.5 µM)	12.5 to 150 (≈ 40.5 to 486 µM)	12.5 to 150 (≈ 40.5 to 486 µM)	12.5 to 150 (≈ 40.5 to 486 µM)		< 1	< 1	< 1
